Experiments:
Assay in all cases: cells
P30-OHK = assay type: functional, cell-based, Homo sapiens; settings: Homo sapiens, P30-OHK;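 note: growth inhibition of the P30-OHK cell line, read out with a cell viability assay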
Description: SANGER: Inhibition of human P30-OHK cell growth in a cell viability assay.

TE-6 = assay type: functional, cell-based, Homo sapiens; settings: Homo sapiens, TE-6;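 note: growth inhibition of TE-6 cells, read out with a cell viability assay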
Description: SANGER: Inhibition of human TE-6 cell growth in a cell viability assay.

ES7 = assay type: functional, cell-based, Homo sapiens; settings: Homo sapiens, ES7;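 note: growth inhibition of cultured human ES7 cells, read out as cell viability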
Description: SANGER: Inhibition of human ES7 cell growth in a cell viability assay.

ES6 = assay type: functional, cell-based; settings: Homo sapiens;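 note: growth inhibition of human ES6 cells, read out with a cell viability assay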
Description: SANGER: Inhibition of human ES6 cell growth in a cell viability assay.

LNCaP-Clone-FGC = assay type: functional, cell-based, Homo sapiens; settings: Homo sapiens, LNCaP-Clone-FGC
Description: SANGER: Inhibition of human LNCaP-Clone-FGC cell growth in a cell viability assay.

NCI-H720 = assay type: functional, cell-based, Homo sapiens; settings: Homo sapiens, NCI-H720;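 note: growth inhibition of human NCI-H720 cells determined by a cell viability assay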
Description: SANGER: Inhibition of human NCI-H720 cell growth in a cell viability assay.

NCI-H82 = assay type: functional, cell-based, Homo sapiens; settings: Homo sapiens, NCI-H82;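 note: growth inhibition of NCI-H82 cells, measured with a cell viability readout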
Description: SANGER: Inhibition of human NCI-H82 cell growth in a cell viability assay.

COLO-824 = assay type: functional, cell-based, Homo sapiens; settings: Homo sapiens, COLO-824
Description: SANGER: Inhibition of human COLO-824 cell growth in a cell viability assay.

MOLT-16 = assay type: functional, cell-based, Homo sapiens; settings: Homo sapiens, MOLT-16;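 note: growth inhibition of human MOLT-16 cells, read out with a cell viability assay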
Description: SANGER: Inhibition of human MOLT-16 cell growth in a cell viability assay.

MMAC-SF = assay type: functional, cell-based; settings: Homo sapiens;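 note: growth inhibition of human MMAC-SF cells, read out with a cell viability assay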
Description: SANGER: Inhibition of human MMAC-SF cell growth in a cell viability assay.

A388 = assay type: functional, cell-based; settings: Homo sapiens;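 note: growth inhibition of human A388 cells, read out with a cell viability assay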
Description: SANGER: Inhibition of human A388 cell growth in a cell viability assay.

HCC2157 = assay type: functional, cell-based, Homo sapiens; settings: Homo sapiens, HCC2157;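 note: growth inhibition of the cancer cell line, read out as cell viability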
Description: SANGER: Inhibition of human HCC2157 cell growth in a cell viability assay.

NB69 = assay type: functional, cell-based, Homo sapiens; settings: Homo sapiens, NB69;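 note: growth inhibition of NB69 cells, determined by a cell viability assay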
Description: SANGER: Inhibition of human NB69 cell growth in a cell viability assay.

KARPAS-45 = assay type: functional, cell-based, Homo sapiens; settings: Homo sapiens, KARPAS-45;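 note: inhibition of cell line growth, read out through a viability assay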
Description: SANGER: Inhibition of human KARPAS-45 cell growth in a cell viability assay.

NCI-H1581 = assay type: functional, cell-based, Homo sapiens; settings: Homo sapiens, NCI-H1581;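 note: cell growth inhibition read out by a viability assay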
Description: SANGER: Inhibition of human NCI-H1581 cell growth in a cell viability assay.

NCI-H1648 = assay type: functional, cell-based, Homo sapiens; settings: Homo sapiens, NCI-H1648;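 note: cell viability assay measuring inhibition of NCI-H1648 cell growth, from the Sanger screening data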
Description: SANGER: Inhibition of human NCI-H1648 cell growth in a cell viability assay.

ES8 = assay type: functional, cell-based, Homo sapiens; settings: Homo sapiens, ES8;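 note: growth inhibition of human ES8 cells, read out with a cell viability assay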
Description: SANGER: Inhibition of human ES8 cell growth in a cell viability assay.

D-502MG = assay type: functional, cell-based, Homo sapiens; settings: Homo sapiens, D-502MG
Description: SANGER: Inhibition of human D-502MG cell growth in a cell viability assay.

LB771-HNC = assay type: functional, cell-based; settings: Homo sapiens;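 note: growth inhibition of LB771-HNC human cells, read out with a cell viability assay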
Description: SANGER: Inhibition of human LB771-HNC cell growth in a cell viability assay.

TE-9 = assay type: functional, cell-based, Homo sapiens; settings: Homo sapiens, TE-9;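 note: cell growth inhibition, measured with a cell viability readout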
Description: SANGER: Inhibition of human TE-9 cell growth in a cell viability assay.

COR-L88 = assay type: functional, cell-based, Homo sapiens; settings: Homo sapiens, COR-L88;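 note: growth inhibition of COR-L88 cells, read out with a cell viability assay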
Description: SANGER: Inhibition of human COR-L88 cell growth in a cell viability assay.

HCC1187 = assay type: functional, cell-based, Homo sapiens; settings: Homo sapiens, HCC1187;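 note: growth inhibition of HCC1187 cells, read out with a cell viability assay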
Description: SANGER: Inhibition of human HCC1187 cell growth in a cell viability assay.

SF-268 = assay type: functional, cell-based, Homo sapiens; settings: Homo sapiens, SF-268;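 note: growth inhibition of SF-268 cells determined with a cell viability assay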
Description: SANGER: Inhibition of human SF268 cell growth in a cell viability assay.

SK-N-FI = assay type: functional, cell-based, Homo sapiens; settings: Homo sapiens, SK-N-FI;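 note: cell viability assay measuring growth inhibition of human SK-N-FI cells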
Description: SANGER: Inhibition of human SK-N-FI cell growth in a cell viability assay.

SCH = assay type: functional, cell-based, Homo sapiens; settings: Homo sapiens, SCH;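 note: growth inhibition of human SCH cells, read out in a cell viability assay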
Description: SANGER: Inhibition of human SCH cell growth in a cell viability assay.

LB996-RCC = assay type: functional, cell-based, Homo sapiens; settings: Homo sapiens, LB996-RCC
Description: SANGER: Inhibition of human LB996-RCC cell growth in a cell viability assay.

NMC-G1 = assay type: functional, cell-based, Homo sapiens; settings: Homo sapiens, NMC-G1;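 note: growth inhibition of the NMC-G1 cell line, measured with a cell viability read-out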
Description: SANGER: Inhibition of human NMC-G1 cell growth in a cell viability assay.

ML-2 = assay type: functional, cell-based, Homo sapiens; settings: Homo sapiens, ML-2;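 note: growth inhibition of ML-2 cells, measured with a cell viability readout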
Description: SANGER: Inhibition of human ML-2 cell growth in a cell viability assay.

LS-1034 = assay type: functional, cell-based, Homo sapiens; settings: Homo sapiens, LS-1034
Description: SANGER: Inhibition of human LS-1034 cell growth in a cell viability assay.

HCE-T = assay type: functional, cell-based, Homo sapiens; settings: Homo sapiens, HCE-T;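 note: cell viability assay read-out, reporting inhibition of HCE-T cell growth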
Description: SANGER: Inhibition of human HCE-T cell growth in a cell viability assay.

OMC-1 = assay type: functional, cell-based, Homo sapiens; settings: Homo sapiens, OMC-1;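 note: growth inhibition of the OMC-1 cell line, measured by a cell viability assay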
Description: SANGER: Inhibition of human OMC-1 cell growth in a cell viability assay.

RPMI-8226 = assay type: functional, cell-based, Homo sapiens; settings: Homo sapiens, RPMI-8226
Description: SANGER: Inhibition of human RPMI-8226 cell growth in a cell viability assay.

D-263MG = assay type: functional, cell-based, Homo sapiens; settings: Homo sapiens, D-263MG
Description: SANGER: Inhibition of human D-263MG cell growth in a cell viability assay.

ALL-PO = assay type: functional, cell-based, Homo sapiens; settings: Homo sapiens, ALL-PO;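 note: growth inhibition of ALL-PO cells, read out by a cell viability assay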
Description: SANGER: Inhibition of human ALL-PO cell growth in a cell viability assay.

SW872 = assay type: functional, cell-based, Homo sapiens; settings: Homo sapiens, SW872;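 note: growth inhibition of SW872 cells, read out by a viability assay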
Description: SANGER: Inhibition of human SW872 cell growth in a cell viability assay.

HH = assay type: functional, cell-based, Homo sapiens; settings: Homo sapiens, HH
Description: SANGER: Inhibition of human HH cell growth in a cell viability assay.

GR-ST = assay type: functional, cell-based, Homo sapiens; settings: Homo sapiens, GR-ST
Description: SANGER: Inhibition of human GR-ST cell growth in a cell viability assay.

CAS-1 = assay type: functional, cell-based, Homo sapiens; settings: Homo sapiens, CAS-1;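 note: growth inhibition of CAS-1 cells, measured with a cell viability assay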
Description: SANGER: Inhibition of human CAS-1 cell growth in a cell viability assay.

NCI-H1155 = assay type: functional, cell-based, Homo sapiens; settings: Homo sapiens, NCI-H1155;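 note: cell growth inhibition measured by a viability assay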
Description: SANGER: Inhibition of human NCI-H1155 cell growth in a cell viability assay.

SK-UT-1 = assay type: functional, cell-based, Homo sapiens; settings: Homo sapiens, SK-UT-1;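 note: growth inhibition of SK-UT-1 cells, measured by a cell viability assay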
Description: SANGER: Inhibition of human SK-UT-1 cell growth in a cell viability assay.

EW-1 = assay type: functional, cell-based, Homo sapiens; settings: Homo sapiens, EW-1
Description: SANGER: Inhibition of human EW-1 cell growth in a cell viability assay.

SBC-1 = assay type: functional, cell-based, Homo sapiens; settings: Homo sapiens, SBC-1;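 note: cell viability assay measuring growth inhibition of the SBC-1 cell line, IC50 being the concentration that halves growth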
Description: SANGER: Inhibition of human SBC-1 cell growth in a cell viability assay.

Ramos-2G6-4C10 = assay type: functional, cell-based, Homo sapiens; settings: Homo sapiens, Ramos-2G6-4C10;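 note: growth inhibition of the cell line, measured by a cell viability read-out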
Description: SANGER: Inhibition of human Ramos-2G6-4C10 cell growth in a cell viability assay.

LAN-6 = assay type: functional, cell-based, Homo sapiens; settings: Homo sapiens, LAN-6;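 note: growth inhibition of LAN-6 cells, determined with a cell viability assay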
Description: SANGER: Inhibition of human LAN-6 cell growth in a cell viability assay.

EW-16 = assay type: functional, cell-based, Homo sapiens; settings: Homo sapiens, EW-16;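 note: growth inhibition of human EW-16 cells, read out as cell viability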
Description: SANGER: Inhibition of human EW-16 cell growth in a cell viability assay.

K5 = assay type: functional, cell-based, Homo sapiens; settings: Homo sapiens, K5
Description: SANGER: Inhibition of human K5 cell growth in a cell viability assay.

MZ2-MEL = assay type: functional, cell-based, Homo sapiens; settings: Homo sapiens, MZ2-MEL;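 note: growth inhibition of MZ2-MEL cells read out with a cell viability assay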
Description: SANGER: Inhibition of human MZ2-MEL cell growth in a cell viability assay.

DJM-1 = assay type: functional, cell-based, Homo sapiens; settings: Homo sapiens, DJM-1;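 note: growth inhibition of human DJM-1 cells, read out by a cell viability assay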
Description: SANGER: Inhibition of human DJM-1 cell growth in a cell viability assay.

NCI-H1304 = assay type: functional, cell-based, Homo sapiens; settings: Homo sapiens, NCI-H1304;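 note: growth inhibition of the cancer cell line, measured in a cell viability assay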
Description: SANGER: Inhibition of human NCI-H1304 cell growth in a cell viability assay.

NB5 = assay type: functional, cell-based, Homo sapiens; settings: Homo sapiens, NB5;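 note: growth inhibition of NB5 cells, read out as cell viability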
Description: SANGER: Inhibition of human NB5 cell growth in a cell viability assay.

Cc1cc(N2CCOCC2)cc2[nH]c(-c3c(NC[C@@H](O)c4cccc(Cl)c4)cc[nH]c3=O)nc12
IC50 (P30-OHK): > 5.12 µM | IC50 (TE-6): > 5.12 µM | IC50 (ES7): > 5.12 µM | IC50 (ES6): 0.425 µM | IC50 (LNCaP-Clone-FGC): > 5.12 µM | IC50 (NCI-H720): > 5.12 µM | IC50 (NCI-H82): > 5.12 µM | IC50 (COLO-824): > 5.12 µM | IC50 (MOLT-16): 5.02 µM | IC50 (MMAC-SF): 0.5 µM | IC50 (A388): > 5.12 µM | IC50 (HCC2157): > 5.12 µM | IC50 (NB69): 0.293 µM | IC50 (KARPAS-45): 4.01 µM | IC50 (NCI-H1581): > 5.12 µM | IC50 (NCI-H1648): 0.19 µM | IC50 (ES8): 2.3 µM | IC50 (D-502MG): > 5.12 µM | IC50 (LB771-HNC): 0.23 µM | IC50 (TE-9): 2.5 µM | IC50 (COR-L88): > 5.12 µM | IC50 (HCC1187): > 5.12 µM | IC50 (SF-268): 3.04 µM | IC50 (SK-N-FI): > 5.12 µM | IC50 (SCH): > 5.12 µM | IC50 (LB996-RCC): 0.816 µM | IC50 (NMC-G1): 4.61 µM | IC50 (ML-2): 0.192 µM | IC50 (LS-1034): 0.758 µM | IC50 (HCE-T): > 5.12 µM | IC50 (OMC-1): > 5.12 µM | IC50 (RPMI-8226): > 5.12 µM | IC50 (D-263MG): > 5.12 µM | IC50 (ALL-PO): 0.373 µM | IC50 (SW872): 1.98 µM | IC50 (HH): > 5.12 µM | IC50 (GR-ST): 3.27 µM | IC50 (CAS-1): > 5.12 µM | IC50 (NCI-H1155): > 5.12 µM | IC50 (SK-UT-1): > 5.12 µM | IC50 (EW-1): 0.173 µM | IC50 (SBC-1): > 5.12 µM | IC50 (Ramos-2G6-4C10): > 5.12 µM | IC50 (LAN-6): 0.172 µM | IC50 (EW-16): 0.206 µM | IC50 (K5): 1.78 µM | IC50 (MZ2-MEL): 4.8 µM | IC50 (DJM-1): > 5.12 µM | IC50 (NCI-H1304): > 5.12 µM | IC50 (NB5): 1.11 µM

Nc1ccccc1NC(=O)c1ccc(CNC(=O)OCc2cccnc2)cc1 [ENTINOSTAT]
IC50 (P30-OHK): > 5 µM | IC50 (TE-6): > 5 µM | IC50 (ES7): 1.8 µM | IC50 (ES6): 0.964 µM | IC50 (LNCaP-Clone-FGC): > 5 µM | IC50 (NCI-H720): 2.17 µM | IC50 (NCI-H82): 1.63 µM | IC50 (COLO-824): > 5 µM | IC50 (MOLT-16): 0.41 µM | IC50 (MMAC-SF): > 5 µM | IC50 (A388): 1.52 µM | IC50 (HCC2157): 1.43 µM | IC50 (NB69): 0.598 µM | IC50 (KARPAS-45): 0.278 µM | IC50 (NCI-H1581): > 5 µM | IC50 (NCI-H1648): > 5 µM | IC50 (ES8): 0.36 µM | IC50 (D-502MG): > 5 µM | IC50 (LB771-HNC): > 5 µM | IC50 (TE-9): 1.84 µM | IC50 (COR-L88): 0.23 µM | IC50 (HCC1187): 4.9 µM | IC50 (SF-268): 3.48 µM | IC50 (SK-N-FI): 3.45 µM | IC50 (SCH): 0.403 µM | IC50 (LB996-RCC): 1.47 µM | IC50 (NMC-G1): 0.404 µM | IC50 (ML-2): 2.33 µM | IC50 (LS-1034): > 5 µM | IC50 (HCE-T): 0.872 µM | IC50 (OMC-1): > 5 µM | IC50 (RPMI-8226): 3.14 µM | IC50 (D-263MG): > 5 µM | IC50 (ALL-PO): 0.0636 µM | IC50 (SW872): 1.81 µM | IC50 (HH): 0.99 µM | IC50 (GR-ST): 1.57 µM | IC50 (CAS-1): > 5 µM | IC50 (NCI-H1155): 3.71 µM | IC50 (SK-UT-1): 1.79 µM | IC50 (EW-1): 2.77 µM | IC50 (SBC-1): 1.43 µM | IC50 (Ramos-2G6-4C10): 0.439 µM | IC50 (LAN-6): 2.02 µM | IC50 (EW-16): 1.93 µM | IC50 (K5): 0.47 µM | IC50 (MZ2-MEL): > 5 µM | IC50 (DJM-1): 3.6 µM | IC50 (NCI-H1304): 3.01 µM | IC50 (NB5): 1.66 µM

Source: ChEMBL document CHEMBL1201861, “Genomics of Drug Sensitity in Cancer screening data, Wellcome Trust Sanger Institute”
